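How tested: cells in 96-well plates exposed to compound for 48 hours at five concentrations. TGI: concentration producing complete growth inhibition.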 *1 amine or outer side, *2 acyl side, *3 side chain or, on linkers, in order; H or OH if unused. Where a SMILES comes first, the peptide text is derived from it. Bridges are numbered along the chain shown (N, C = ends). [ ]: non-standard residue; d: D form. The star is where a group is joined. X34 = O=C(C(CCCCNO[*:3])N[*:1])[*:2]; Fmoc = O=C(OCC1c2ccccc2-c2ccccc21)*
Columns and labels:
Assay in all cases: NCI tumour cell line growth inhibition, 48 h
[1] = tested on: A549 NSCLC
[2] = tested on: HCT-116 colon
[3] = tested on: ACHN renal
[4] = tested on: SF-268 CNS
[5] = tested on: KM12 colon
[6] = tested on: HT29 colon
[7] = tested on: HL-60(TB) leukemia
[8] = tested on: IGROV1 ovarian
[9] = tested on: SK-MEL-5 melanoma
[10] = tested on: 786-0 renal
[11] = tested on: OVCAR-8 ovarian
[12] = tested on: NCI-H23 lung
[13] = tested on: DMS 114 small cell lung
[14] = tested on: SF-295 CNS
[15] = tested on: SR leukemia
[16] = tested on: HOP-62 NSCLC
[17] = tested on: OVCAR-5 ovarian
[18] = tested on: T-47D breast
[19] = tested on: PC-3 prostate
[20] = tested on: BT-549 breast

Measured: TGI

COc1ccc(NC(=O)C(C)Oc2ccc(OCC3CCCCC3)cc2)cc1 (configuration not stated)
68.3 µM: [12]
not listed: [14] | [15] | [16] | [17] | [18] | [19] | [20]
> 100 µM: all other assays above

COC(=O)C(Br)C1CCc2ccccc21 (configuration not stated)
not listed: [5] | [18] | [19] | [20]
> 100 µM: all other assays above

CN(C)c1snc2c1c(=O)n(C)c(=O)n2C
not listed: [5] | [15] | [18] | [19] | [20]
> 100 µM: all other assays above

CN=C(N)c1ccc(N=C(N)c2ccc(C(N)=Nc3ccc(C(N)=NC)cc3)cc2)cc1
not listed: [2] | [12] | [15] | [18] | [19] | [20]
> 100 µM: all other assays above

COc1cc2c(cc1OC)CC1c3cc(OC)c(OC)cc3CCN1CC2 (configuration not stated)
68 µM: [12]
not listed: [13]
> 100 µM: all other assays above

CCOC(=O)c1c(C)n([O-])c2cc(Cl)c(Cl)cc2[n+]1=O
35.6 µM: [1]
26.6 µM: [12]
75.9 µM: [20]
36.5 µM: [9]
24.1 µM: [8]
25.8 µM: [15]
53 µM: [11]
46.3 µM: [2]
24.6 µM: [7]
27.5 µM: [5]
57.8 µM: [16]
60.1 µM: [18]
76 µM: [4]
84.5 µM: [10]
not listed: [13]
> 100 µM: all other assays above

CC(=O)O[C@@]12CO[C@@H]1C[C@@H](O)[C@@]1(C)C(=O)[C@H](O)C3=C(C)[C@@H](OC(=O)[C@H](O)[C@@H](NC(=O)c4ccccc4)c4ccccc4)C[C@@](O)([C@@H](OC(=O)c4ccccc4)C12)C3(C)C (some centres not stated)
8.52 µM: [14]
57 µM: [3]
> 69.7 µM: [16]
22.8 µM: [13]
0.152 µM: [2]
0.124 µM: [6]
> 50.1 µM: [15]
> 39.9 µM: [7]
not listed: [5] | [9] | [12] | [17]
> 100 µM: all other assays above

Cc1ccc(OCC2OC(n3cnc4c(Cl)nc(Cl)nc43)CC2Oc2ccc(C)cc2)cc1 (configuration not stated)
11.9 µM: [1]
4.53 µM: [18]
3.09 µM: [5]
19.1 µM: [17]
3.91 µM: [12]
6.53 µM: [7]
5.39 µM: [11]
5.17 µM: [15]
5.42 µM: [14]
4.19 µM: [4]
4.48 µM: [8]
32.4 µM: [10]
4.3 µM: [20]
2.66 µM: [3]
19.2 µM: [9]
2.91 µM: [6]
7.37 µM: [16]
3.65 µM: [2]
6.57 µM: [19]

C=CCN1/C(=C2\SC(=S)N(c3ccc(C)cc3)C2=O)Sc2c1nc[nH]c2=O
not listed: [5] | [15] | [18] | [19] | [20]
> 100 µM: all other assays above

NC(=O)CNC(=O)C1CCCN1C(=O)C1CCCCNOC(=O)CCC(NC(=O)OCC2c3ccccc3-c3ccccc32)C(=O)NC(Cc2c[nH]c3ccccc23)C(=O)N1 (configuration not stated) (Fmoc-EW[X34]PG-NH2; ester 1-3; configuration not given here)
not listed: [13]
> 100 µM: all other assays above

OC(c1ccc2c(c1)OCO2)c1ccc2c(c1)OCO2
not listed: [13]
> 100 µM: all other assays above

COc1cc(/C=C\c2nnc(/C=C\c3ccc(O)c(OC)c3)s2)ccc1O
23.4 µM: [6]
11.1 µM: [20]
48.8 µM: [17]
41.2 µM: [4]
7.37 µM: [15]
5.45 µM: [7]
22.3 µM: [3]
14 µM: [2]
42 µM: [16]
13.5 µM: [14]
3.42 µM: [9]
15.4 µM: [5]
7.38 µM: [18]
> 54.7 µM: [1]
12.2 µM: [12]
> 64.3 µM: [19]
> 100 µM: [10]
> 42.9 µM: [11]
> 36.6 µM: [8]

COC(=O)C1Cc2ccc3c(c2C1=O)CCCC3 (configuration not stated)
82.9 µM: [15]
not listed: [13]
> 100 µM: all other assays above

O=C(N/N=C/c1ccc([N+](=O)[O-])cc1)Nc1ccc(Br)cc1
not listed: [13]
> 100 µM: all other assays above

C/C=C1\CN2CCc3c([nH]c4ccccc34)C2C=C1CCO (configuration not stated)
not listed: [18] | [19] | [20]
> 340 µM: all other assays above

CC(C)Oc1cccc(N2C(=NCCc3c[nH]c4ccccc34)Nc3ccncc3S2(=O)=O)c1
65.4 µM: [7]
20.3 µM: [6]
5.35 µM: [10]
not listed: [13]
> 100 µM: all other assays above
